Assay: Stability by UV spectroscopy after storage under normal conditions and stress tests
Format: physicochemical
Details: stress / rapid test conditions

CCC(CC)COC(=O)[C@H](C)N[P@](=O)(OC[C@H]1O[C@@](C#N)(c2ccc3c(N)ncnn23)[C@H](O)[C@@H]1O)Oc1ccccc1 [RDV, remdesivir]
stability of the solution according to UV spectroscopic data: limitedly stable

— patent publication US20230310467A1 (priority 2022, published 2023)
